Patent US8324282B2, “Alkylating agent combinations in the treatment of cancer” (Case Western Reserve University, priority 1999, dated 2012)

What was measured:
HCT116 xenograft = HCT116 xenograft tumor response in nude mice; format: in vivo; settings: HCT116 xenograft; Table 2 doses: TMZ 120, MX 2, MX+TMZ 2/120 mg/kg; daily for 5 days
HCT116 cells = assay: Growth inhibition assay (MTT), HCT116; format: cell-based, human; settings: HCT116; MX 6 mM plus H2O2 0-150 μM 1 hr
Method: In this experiment, a growth inhibition assay was carried out with H2O2, an oxidizing agent that mimics the effect of chemotherapeutic agents and radiation. Cells in the exponential phase were plated (1×10^4) in 24-well tissue culture plates. After attachment overnight, the cells were incubated with hydrogen peroxide (H2O2) (0-150 μM) or MX (6 mM) plus H2O2 for 1 hr. Five days after treatment, the media was discarded, and 100 μl of MTT (5 mg/ml in PBS) was added in 1 ml fresh media to each well for 4 hrs at 37° C. The MTT solution was then removed, and the formazan crystals were dissolved in 200 μl/well of DMSO for 20 min and changes in absorbance were determined at A540nm. Percentage growth inhibition was calculated by comparison of the A540nm reading from treated versus control cells.
The agents contemplated for combinations with MX in this example are agents which incorporate into DNA and are repaired by BER to form AP sites. Cell-growth inhibition was carried out with HCT116 cells to test MX-potentiated cytotoxicity of iododeoxyuridine (IUdR), which has been recognized as a radiosensitizing agent since the early 1960's.

[1] = tested on: AP sites in calf thymus DNA; assay: Competitive AP site binding assayed by Aldehyde Reactive Probe (ARP); settings: MX 5-20 mM
Excerpt: 1. Analysis of chemical—modified AP Sites assayed by Aldehyde Reactive Probe (ARP). This is a competitive assay to measure the reactivity with AP site between ARP reagent (Dojindo Molecular Technologies Inc., Gaithersburg, Md.) and the screening compounds. ARP and MX have a similar reactivity with AP sites. They react specifically with an aldehyde group that is open ring form of the AP sites. Thus this assay will allow identification of compounds with potential to block AP site repair based on the binding affinity and efficiency to AP sites of screening compounds compared to ARP and MX.
a. AP site standard preparation: AP sites were produced in a calf thymus DNA by heat/acid-buffer solution. Intact calf thymus DNA was added to sodium citrate buffer (10 mM sodium citrate containing 10 mM NaH2PO4 and 10 mM NaCl, pH 5.0) and held at 70° C. for 30 min. The reaction was stopped by chilling rapidly on ice, and the DNA was then precipitated with cold ethanol, washed with 70% ethanol, dried, and resuspended in sterilized distilled water.
b. […] After NC membrane was rinsed with washing buffer containing NaCl (0.26 M), EDTA (1 mM), Tris-HCI (20 mM), and Tween 20 (1%), ARP-AP sites are visualized with ECL reagents (Amersham Corp.) (FIG. 22A) and quantitated by scanning densitometer (FIG. 22B).

AP-endonuclease (APE) = assay: AP site cleavage by AP-endonuclease (APE); format: biochemical
Method: 2. AP sites cleavaged by AP-endonuclease (APE). […] The assay may be performed as follows (see also FIGS. 23A and B):
a. AP site is prepared by replacing single nucleoside with deoxyuridine in duplex oligonucleotides (40 mer).
b. Regular AP site is produced in the duplex oligonucleotides by human uracil DNA glycosylase (LIDGase, Trevigen, Gaithersburg, Md.) to remove the uracil residue.
c. To generate MX-adducted AP site substrates: the UDG-treated duplex oligonucleotides are mixed with 10 mM MX in buffer containing 10 mM KPO4, pH 7.1 and incubated at 37° C. After 30 min, the substrates are recovered by ethanol precipitation, lyophilized, resuspended in water, and stored at −20° C.
d. APE-cleavage reaction: DNA substrates containing either regular AP-sites or chemicalmodified AP sites are incubated with APE (Trevigen, Gaithersburg, Md.) for 30 min and reactants are precipitated with 100% cold ethanol, washed with 70% ethanol and resuspended in TE buffer. The reactants are resolved by denaturing 20% polyacrylamide gel electrophoresis and visualized by silver staining (Silver Staining Kit, Pharmacia Biotech).

CON [MX, methoxyamine]
Tumor growth delays (HCT116 xenograft): 2.2 ± 0.4 days
sensitivity to killing induced by H2O2 (HCT116 cells): significantly increased sensitivity
AP binding sites blocked (relative reduction of ARP-detected AP sites by densitometry) [1]: 38-80%
cleavage of modified AP sites by APE (AP-endonuclease (APE)): resistant to cleavage
